The results in this text go back to PubChem BioAssay (NCI).

Common to all, as to test: inhibition of tumour cell growth, NCI panel, 48 h
The test system of assay [1] is 786-0 renal.
Assay [2] deals with A549 NSCLC.
For assay [3], the system named is COLO 205 colon.
In assay [4] the test system is K-562 leukemia.
The test system of assay [5] is MALME-3M melanoma.
Assay [6] has as its system MDA-MB-231 breast.
Assay [7] deals with OVCAR-5 ovarian.
The test system of assay [8] is T-47D breast.
The test system of assay [9] is UACC-257 melanoma.
Assay [10] deals with HCC-2998 colon.
Assay [11] has as its system HL-60(TB) leukemia.

Each structure is given as a SMILES string.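 Cultured in 96-well plates, cells were exposed to test compound for 48 hours across five concentrations. TGI denotes the concentration required for complete inhibition of growth.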

For the compound `Cn1c(=O)c2c(ncn2CCSS(=O)(=O)O)n(C)c1=O`, the TGI in [1], in assay [2], in assay [3], in assay [4], in assay [5] and in assay [6] was greater than 100 µM in each case. In addition, the TGI in [7], in assay [8] and in assay [9] was greater than 100 µM throughout.

Regarding `C[N+](C)(C)Cc1c(CC#N)[nH]c2ccccc12`, the TGI in assay [1], in [2], in [3], in assay [10], in assay [11] and in assay [4] was greater than 100 µM in each case. Also, the TGI in assay [5], in assay [7] and in assay [9] was greater than 100 µM each time.

In the case of `CNC(=O)c1n[nH]n(Cc2ccccc2)c1=S`, the TGI in assay [1], in assay [2], in [3], in assay [10], in [4] and in assay [6] was greater than 100 µM in each case. Moreover, the TGI in assay [7], in assay [8] and in assay [9] was greater than 100 µM in each case.

For `CC(C)[Si](OCC1CC(C[C@H]2CC(C[C@H]3C[C@@H](CO[Si](C(C)C)(C(C)C)C(C)C)OC(C)(C)O3)OC(C)(C)O2)OC(C)(C)O1)(C(C)C)C(C)C` (some centres undefined), the TGI in assay [1], in assay [2], in assay [3], in assay [10], in assay [11] and in [4] was greater than 100 µM each time. The TGI in [5], in [7] and in assay [9] was greater than 100 µM in each case.

In the case of `C=CCOC(=O)CCCCCCCCCCCCCCCOC(=O)c1c(CCC[C@@H](C)O[Si](C)(C)C(C)(C)C)nc(=O)n2c1CC[C@H]2CC1(CC/C=C\[C@H](CC)O[Si](C(C)C)(C(C)C)C(C)C)OCCO1`, the TGI in assay [1] is 77.2 µM; in assay [2], greater than 100 µM; in assay [3] it was greater than 100 µM; in assay [10], greater than 100 µM; in assay [5], greater than 100 µM; in assay [6] it was 54.3 µM. Further, the TGI in [7], in assay [8] and in assay [9] was greater than 100 µM throughout.

Turning to `O=c1[nH]c(=O)n(C2CC(O)C(CO)O2)cc1C#Cc1cc(C(F)(F)F)cc(C(F)(F)F)c1` (centres undefined), the TGI is greater than 100 µM in [1]; greater than 100 µM in [2]; greater than 42.7 µM in assay [3]; greater than 100 µM in assay [10]; greater than 100 µM in assay [11]; greater than 100 µM in [4]. Also, the TGI in [5], in [7] and in assay [9] was greater than 100 µM each time.

In the case of `CC(C)CCNC(=O)c1ccc(CNC(=O)/C=C/c2csc(-c3ccccc3)n2)cc1`, the TGI in [1], in assay [2], in [3], in assay [10], in [4] and in [5] was greater than 100 µM in each case. For the same compound, the TGI in assay [6], in assay [7], in [8] and in assay [9] was greater than 100 µM in each case.

For `CC(=O)N1C(C(=O)NNc2ccccc2)CSC1c1ccccc1` (centres undefined), the TGI in [1], in [2], in assay [3], in assay [10], in [4] and in [5] was greater than 100 µM each time. The TGI in assay [6], in assay [7], in [8] and in [9] was greater than 100 µM each time.

Take `COc1cc2c(oc(=O)c3cc4ccoc4c(OC)c32)c2cccc(O)c12`: the TGI in [1], in assay [2], in assay [3], in [10], in assay [11] and in assay [4] was greater than 100 µM throughout. For the same compound, the TGI in [5], in assay [7] and in assay [9] was greater than 100 µM throughout.

For `CC(C)/C(Cl)=N\OC(=O)Nc1ccc(F)c([N+](=O)[O-])c1`, the TGI in assay [1] is 7.87 µM; in assay [2], 56 µM; in assay [3], 4.36 µM; in assay [10], greater than 100 µM; in assay [11], 2.85 µM; in [4], greater than 100 µM. For the same compound, the TGI in [5] stood at 3 µM; in [6], 28.9 µM; in [7] it was 42.8 µM; in assay [9], 33.5 µM.

With `Cc1ccc(S(=O)(=O)N/N=C/c2oc(-c3ccccc3Cl)c(-c3ccccc3Cl)c2[N+](=O)[O-])cc1`, the TGI in [1] was 72 µM; in assay [2] it was greater than 100 µM; in assay [3] it was greater than 100 µM; in [10], 47.9 µM; in [11], 39.9 µM; in assay [4], greater than 100 µM. Also, the TGI is 71.4 µM in assay [5], 34.2 µM in assay [7] and greater than 100 µM in [9].

In the case of `O=C(Nc1ccccc1)Nn1c(-c2cccs2)nc2ccc(I)cc2c1=O`, the TGI in [1] is greater than 100 µM; in [2], 49.4 µM; in assay [3] it was 53.4 µM; in assay [10], 55.3 µM; in [11], 21.8 µM; in assay [4], 10.4 µM. The figures for the TGI in [7], in assay [8] and in [9] were greater than 100 µM, 17.2 µM and 65.9 µM, respectively.

As to `NC(CCCCN=Cc1nc(-c2ccccc2)oc1O)C(=O)O` (centres undefined), the TGI in assay [1], in assay [2], in assay [3], in [10], in assay [11] and in [4] was greater than 100 µM throughout. In addition, the TGI in [5], in assay [7] and in assay [9] was greater than 100 µM in each case.

Take `O=C1c2ccccc2C(=O)C2C3c4ccccc4C(c4ccccc43)C12` (centres undefined): the TGI was 18.9 µM in [1]; greater than 100 µM in assay [2]; greater than 100 µM in assay [3]; 88.8 µM in [10]; 32.2 µM in [4]; 38.8 µM in assay [5]. In [9], this compound had a TGI greater than 100 µM.

In the case of `Nc1ccc(C(=O)NN2C(=O)C(Cl)C2c2ccc([N+](=O)[O-])cc2)cc1` (centres undefined), the TGI in [1] worked out at 16.6 µM; in [2], 25.8 µM; in [3], 29.1 µM; in [10] it was 21.2 µM; in [11], 4.65 µM; in assay [4], 36.2 µM. Besides, the TGI came to 25 µM in [5], 41.6 µM in assay [7] and 31.2 µM in assay [9].

Take `COc1cc(CNC(=O)[C@H](Cc2ccc(O)cn2)NC(C)=O)cc(OC)c1`: the TGI in assay [1], in [2], in [3], in assay [10], in [11] and in [4] was greater than 100 µM in each case. For the same compound, the TGI in [5], in assay [7], in assay [8] and in assay [9] was greater than 100 µM in each case.

For `CCn1c(-c2ccccc2)nc2c1C(=O)c1ccccc1C2=O`, the TGI is greater than 100 µM in assay [1]; greater than 100 µM in assay [2]; 91.1 µM in assay [3]; 51.4 µM in assay [10]; greater than 100 µM in assay [11]; greater than 100 µM in assay [4]. Further, the TGI came out at 21.7 µM in assay [5] and 82.8 µM in [7].

On to `CN(C)CS/C(N)=N\C(O)C(Cl)(Cl)Cl` (centres undefined), for which the TGI in [1], in assay [2], in assay [10], in assay [4], in assay [5] and in assay [6] was greater than 100 µM in each case. Also, the TGI in [7], in assay [8] and in [9] was greater than 100 µM in each case.

For `CN(C)CCCNC(=O)c1cc(NC(=O)c2cc(NC(=O)[C@H]3C[C@@H]3C(=O)Nc3cc(C(=O)Nc4cc(C(=O)NCCCN(C)C)n(C)c4)n(C)c3)cn2C)cn1C`, the TGI in [1], in assay [2], in assay [3], in [10], in assay [11] and in assay [4] was greater than 100 µM each time. The TGI in assay [5], in assay [6], in assay [7] and in assay [9] was greater than 100 µM throughout.

With `CCCC(=O)/C=C/S/C=C/C(=O)CCC`, the TGI is 4.98 µM in [1]; greater than 100 µM in assay [2]; 25.4 µM in [5]; 23.8 µM in assay [6]; 9.69 µM in assay [7]; greater than 100 µM in [8].

Take `CC(C)C(Sc1nc(-c2ccccc2)c(-c2ccccc2)[nH]1)C(=O)N/N=C/c1ccc([N+](=O)[O-])cc1` (centres undefined): the TGI in assay [1] was found to be 32.1 µM; in assay [2], 66.3 µM; in assay [3] it was 24.9 µM; in assay [11] it was 33.5 µM; in [5], 30 µM; in assay [7] it was 44.8 µM. This compound also showed a TGI in assay [9] of 28.8 µM.

For `O=C1SC(c2ccccc2)(c2ccccc2)c2ccccc21`, the TGI in assay [1], in assay [2], in [3], in assay [10], in assay [11] and in assay [4] was greater than 100 µM throughout. For the same compound, the TGI in assay [5] and in assay [9] was greater than 100 µM each time.

Take `Cc1nc2c(n1CCC(C)C)C(=O)c1ccccc1C2=O`: the TGI in assay [1] was greater than 100 µM; in assay [2], greater than 100 µM; in assay [3] it was 30.8 µM; in assay [10], greater than 100 µM; in [11], 28.1 µM; in assay [4], 69.1 µM. Moreover, the TGI was 55.3 µM in assay [5] and 56.7 µM in [9].

As to `COc1cc(S(=O)(=O)Nc2ccc(-c3csc(N4C(=O)C(C)SC4c4ccccc4O)n3)cc2)ccc1Cl` (centres undefined), the TGI in [1] was greater than 100 µM; in assay [2], greater than 100 µM; in assay [3], 57 µM; in assay [11], 56.4 µM; in [4], greater than 100 µM; in [5], 35.5 µM. Further, the results for the TGI in assay [7] and in assay [8] were greater than 100 µM and 31 µM, respectively.

In the case of `NC(CCCNc1cccc(O)c1)C(=O)O` (centres undefined), the TGI in assay [1], in [2], in assay [3], in assay [11], in assay [4] and in assay [5] was greater than 100 µM in each case. Also, the TGI in [7] and in assay [9] was greater than 100 µM throughout.

Consider `COC(=O)c1cc(-c2ccc(-c3ccc(O)cc3)cc2)cc(-c2ccc(-c3ccc(O)cc3)cc2)c1`, for which the TGI amounted to 18.9 µM in [1]; 20.9 µM in assay [2]; 31 µM in assay [3]; 33 µM in [10]; 17.6 µM in [4]; 71.3 µM in [6]. Moreover, the TGI in assay [7] was found to be 29.1 µM; in [8], 33.8 µM; in [9] it was 33.3 µM.

In the case of `O/N=C1/CCCCCC1NO` (centres undefined), the TGI in assay [1], in assay [2], in [3], in assay [10], in assay [5] and in assay [6] was greater than 100 µM in each case. The TGI in [7], in assay [8] and in [9] was greater than 100 µM in each case.

For the compound `COc1ccc(CC2NCCc3cc(OC)c(OC)cc32)cc1` (centres undefined), the TGI in assay [1], in assay [2], in assay [3], in assay [10], in [11] and in assay [5] was greater than 100 µM each time. The TGI in assay [7] and in [9] was greater than 100 µM in each case.
